Data taken from patent publication US6222035A, “[1,2,4] triazolo [1,5-C] pyrimidine derivatives” (Kyowa Hakko Kogyo Co., Ltd., priority 1997, dated 2001).
Counter-ions that a name gives are not always drawn.

Columns and labels:
[1] = tested on: CGS 21680-induced catalepsy in mice; experiment: Activity on CGS 21680-induced Catalepsy; format: in vivo, mouse (male ddY); conditions: 10 mg/kg oral; for Total score (catalepsy): 10 animals, maximum 50 points, control 48; for Number of Animals showing remission: catalepsy score 4 points or less in 10 cases; for inhibition in vivo at 10 mg/kg: Mus musculus, CGS 21680-induced catalepsy, read-out: Remission ratio (%)
Method in brief: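 Male ddY mice (5 weeks, 10 per group) received CGS 21680 10 μg/20 μl intracerebroventricularly; test compounds given orally at 10 mg/kg in 0.3% Tween 80 suspension. Catalepsy scored 1 h after dosing on a 4.5 cm bar; total group score (maximum 50) compared with control; ≤4 per animal counted as remission.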

adenosine A2A receptor = target: T1, adenosine A2A receptor (Rattus norvegicus, UniProt P30543); experiment: Adenosine receptor binding activity (adenosine A2A receptor binding test), 3H-CGS 21680 binding; conditions: 2 h, read-out: A2A receptor inhibition ratio (%); for inhibition at 0.1 µM: 10^-7 M; for inhibition at 0.01 µM: 10^-8 M
T1 construct: from tissue; host or cells: rat corpus striatum, washed membrane suspension
Method in brief: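 Rat corpus striatum membranes (5 mg wet tissue/mL in 50 mM Tris-HCl pH 7.7, 10 mM MgCl2, adenosine deaminase) incubated with 4.0 nM 3H-CGS 21680 and test compound for 120 min at 25 °C, then filtered and counted. Nonspecific binding defined with 100 μM CPA; % inhibition of specific binding calculated.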

[2] = tested on: immobility time in forced swimming of mice; experiment: Forced Swimming Method (measurement of immobility time); format: in vivo, mouse (male ddY); conditions: 10 mg/kg oral, Steel-test vs solvent control
Protocol: Forced Swimming Method (measurement of immobility time)
Ten animals per group of ddY male mice (21 to 26 g in body weight, Japan SLC) were used as the experimental animal. During the preliminary feeding period, they were allowed to have feed and water freely in an animal room of a room temperature of 23±1° C. and a humidity of 55±5%. […] The drugs to be tested were suspended in a 0.3% Tween 80 solution and orally administered one hour before the test. In the negative control group, 10 ml/kg of the 0.3% Tween 80 solution alone was orally administered. Measurement of immobility time was carried out in accordance with the method of Porsolt [Arch. int Pharmacodyn., 229: 327-336 (1977)]. That is, a cylindrical transparent acrylic water tank (10 cm in diameter and 25 cm in height) was filled with 9 cm in depth of water having a temperature of 23±1° C., and mice were forced to swim for 6 minutes. When mice are put into water, they immediately start to swim trying to escape from the tank, but the motion gradually decreases 1 to 2 minutes thereafter. […] In order to reduce effects of daily rhythm, the test was carried out by using 5 of the 10 animals per group in the morning, and the remaining 5 animals in the afternoon. Further, measurement of immobility time was carried out by observing 2 animals at the same time and by not telling the observers distinctions about the solvent-administered group and doses of administered test drugs. Statistical analysis of the results was carried out by a multiple comparison test of the solvent-administered control group and each of the test drug-administered groups by Steel-test.

[3] = tested on: learned helplessness model in rats; experiment: Activity in Learned Helplessness (LH) Model; format: in vivo, rat (male SD); conditions: 5.0 mg/kg po, electric shock (IES) loaded, Average % ± SE
Protocol: Activity in Learned Helplessness (LH) Model
As experimental animals, 10 to 15 animals per group of SD male rats (220 to 320 g in body weight, 7 week age, Charles River Japan, Atsugi) were used. During the preliminary feeding period, they were allowed to have feed (CRF-1, Oriental Yeast, Tokyo) and water (tap water) freely in an animal room at a room temperature of 22 to 24° C. and a humidity of 50 to 60%. The test compound was orally administered in a dose of 2 ml/kg and 1 hour before FR 1 (fixed ratio schedule 1: repetition of fixed trial conditions) on the second day of the test.
2) Preparation of Learned Helplessness Model
A shuttle box apparatus (TK-401S; manufactured by UNICOM, Chiba) was used as the learning test apparatus. […]
On the second day, a shuttle box test was carried out by slightly modifying the method of Maier et al. [J. Comp. […] The escape reaction was judged success when both of the two escape times in FR 2 were less than 10 seconds, and the escape response was calculated by the following formula: "the number of trials of successful escape/15×100=escape response (%)" Further, migration in the box other than the escape reaction observed during a period between trials (resting time) was used as an index of psychomotor stimulant action by calculating "total number of migration in the box/15×100=intertrial response (%)" […]

[4] = tested on: common marmoset MPTP-treated Parkinson's disease model; experiment: Activity in a Parkinson's Disease Model (common marmoset treated with MPTP); format: in vivo
[5] = tested on: haloperidol-induced catalepsy in mice; experiment: Activity on haloperidol-induced Catalepsy; format: in vivo, mouse (male ddY); conditions: 10 mg/kg oral; for Total score (catalepsy): 10 animals, maximum 50 points, control 50; for Number of Animals showing remission: catalepsy score 4 points or less in 10 cases; for Remission ratio (%): haloperidol-induced catalepsy
Protocol: Activity on haloperidol-induced Catalepsy
Parkinson's disease is a disease based on the degeneration and cell death of the nigrostriatal dopaminergic neuron. When haloperidol (dopamine D1/D2 antagonist) is administered, catalepsy is induced by the block of postsynaptic D2 receptor. This haloperidol-induced catalepsy is known as a classic model in which symptoms of Parkinson's disease are produced by drug administration [European Journal of Pharmacology, 182: 327 (1990) and U.S. Pat. No. 3,991,207].
This test was carried out using 10 animals per group of male ddY mice of 5 week age (22 to 24 g in body weight, Japan SLC). Haloperidol (manufacturedby Janssen) was suspended in 0.3% CMC and administered intraperitoneally into mice at a dose of 1.0 mg/kg. Each test compound was used by mixing it with Tween 80 and then suspending it in distilled water for injection (manufactured by Otsuka Pharmaceutical). Also, L-DOPA (manufactured by Kyowa Hakko Kogyo Co., Ltd.) and benserazide HCl (manufactured by Kyowa Hakko Kogyo Co., Ltd.) were used by suspending them in 0.3% CMC. […] All of the test compounds were administered orally in a dose of 10 mg/kg, and 100 mg/kg of L-DOPA and 25 mg/kg of benserazide were used in combination as a control drug and administered by intraperitoneal injection. The catalepsy score was evaluated by the judging criteria shown in the above-described Table 3.
The effect was judged by total catalepsy scores of 10 animals in one group (the maximum is 50 points). When the total score was 40 points or less, the activity of drugs was judged positive. The number of animals showing remission of catalepsy was expressed by the number of cases in which the catalepsy score was 4 points or less in 10 cases. The catalepsy remission ratio was expressed as the percentage of the total score in the test compound-administered group to the total score in the control group.

[6] = tested on: clonidine-induced aggressive behavior in mice; experiment: Activity on Clonidine-induced Aggressive Behavior; format: in vivo, mouse (male ddY); conditions: 10 mg/kg po; for Number of attacks (count; average ± S.E.M.), test compound group: *: p < 0.05, 10 animals
Protocol: Activity on Clonidine-induced Aggressive Behavior
Effect of test compounds to increase aggressive behavior induced by the intraperitoneal injection of clonidine [European Journal of Pharmacology, 29: 374 (1968)] was examined.
This test was carried out using 2 animals per group of male ddY mice of 20 to 25 g in body weight (Japan SLC). Each test compound was used by mixing it with Tween 80 and then suspending it in distilled water for injection (manufactured by Otsuka Pharmaceutical), and clonidine hydrochloride (manufactured by Sigma Co.) was used by dissolving it in physiological saline (manufactured by Otsuka Pharmaceutical). […] The number of aggressive behavior of each mouse was measured for 30 minutes immediately after the administration of clonidine. The effect was judged by comparing values of the number of aggressive behavior in the control and those in test compound-administered groups (significance test: Student t-test).

T1 sequence (P30543 whole entry): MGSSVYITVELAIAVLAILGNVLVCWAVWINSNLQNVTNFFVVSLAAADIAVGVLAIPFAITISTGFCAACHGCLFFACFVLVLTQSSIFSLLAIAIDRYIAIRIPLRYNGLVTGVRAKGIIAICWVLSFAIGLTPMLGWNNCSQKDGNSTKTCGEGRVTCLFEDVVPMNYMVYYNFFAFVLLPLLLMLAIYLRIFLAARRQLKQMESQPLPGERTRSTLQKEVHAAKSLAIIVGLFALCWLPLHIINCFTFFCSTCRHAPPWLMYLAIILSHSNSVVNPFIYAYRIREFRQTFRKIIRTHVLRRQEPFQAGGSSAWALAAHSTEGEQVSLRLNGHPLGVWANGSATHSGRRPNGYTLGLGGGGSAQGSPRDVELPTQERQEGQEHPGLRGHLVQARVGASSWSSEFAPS

| SMILES | Total score (catalepsy) [1] | Number of Animals showing remission [1] | inhibition in vivo at 10 mg/kg [1] [%] | inhibition at 0.1 µM (adenosine A2A receptor) [%] | Immobility time-shortening activity [2] | Intertrial response [3] [%] | Escape response ([3]; **: p < 0.01 vs loaded control) [%] | inhibition at 0.01 µM (adenosine A2A receptor) [%] | Total spontaneous motor count ([4]; FIG. 2, common marmoset treated with MPTP) | Efficacy in the common marmoset MPTP-treated Parkinson's disease model ([4]; total Parkinson's disease symptom score and locomotor count vs vehicle) | Total score (catalepsy) [5] | Number of Animals showing remission [5] | Remission ratio (%) [5] [%] | Number of attacks in test compound group/number of attacks in control group [6] | Number of attacks (count; average ± S.E.M.), test compound group [6] [count] |
| --- | --- | --- | --- | --- | --- | --- | --- | --- | --- | --- | --- | --- | --- | --- | --- |
| CC(C)NC(=O)c1cnc(N)n2nc(-c3ccco3)nc12 [Compound 165, 5-Amino-2-(2-furyl)-8-isopropylcarbamoyl[1,2,4]triazolo[1,5-c]pyrimidine] | 13 | 9 | 74 | 103 | Significant immobility time-shortening activity was observed |  |  |  |  |  |  |  |  |  |  |
| Nc1nc(N2CCN(C(=O)c3ccccc3)CC2)cc2nc(-c3ccco3)nn12 [Compound 45, 5-Amino-7-(4-benzoylpiperazinyl)-2-(2-furyl)[1,2,4]triazolo[1,5-c]pyrimidine] |  |  |  |  |  | 6.7 ± 3.8 | 64 ± 9.8 |  |  |  |  |  |  |  |  |
| CNC(=O)c1cnc(N)n2nc(-c3ccco3)nc12 [Compound 167, 5-Amino-2-(2-furyl)-8-methylcarbamoyl[1,2,4]triazolo[1,5-c]pyrimidine] | 9 | 10 | 82 | 90 | Significant immobility time-shortening activity was observed |  |  |  |  |  |  |  |  |  |  |
| Nc1nc(N2CCN(CCCc3ccccc3)CC2)cc2nc(-c3ccco3)nn12 [Compound 63, 5-Amino-2-(2-furyl)-7-[4-(3-phenylpropyl)piperazinyl][1,2,4]triazolor[1,5-c]pyrimidine] | 7 | 10 | 84 | 82 |  |  |  | 31 | increase | effective |  |  |  |  |  |
| COc1ccc(Oc2cc3nc(-c4ccco4)nn3c(N)n2)cc1OC [Compound 31, 5-Amino-7-(3,4-dimethoxyphenoxy)-2-(2-furyl)[1,2,4]triazolo[1,5-c]pyrimidine] | 28 | 9 | 42 |  |  |  |  |  |  |  | 15 | 10 | 70 | 9.1 | 38.1 ± 13.06 |
| Nc1nc(N2CCN(C/C=C/c3ccccc3)CC2)cc2nc(-c3ccco3)nn12 [Compound 88, 5-Amino-7-(4-trans-cinnamylpiperazinyl)-2-(2-furyl)[1,2,4]triazolo[1,5-c]pyrimidine] | 0 | 10 | 98 | 57 | Significant immobility time-shortening activity was observed |  |  |  |  |  |  |  |  |  |  |
| Nc1nc(N2CCN(CC#Cc3ccccc3)CC2)cc2nc(-c3ccco3)nn12 [Compound 89, 5-Amino-2-(2-furyl)-7-(4-(3-phenylpropargyl)piperazinyl)[1,2,4]triazolo[1,5-c]pyrimidine hydrochloride] | 15 | 10 | 68 | 52 | Significant immobility time-shortening activity was observed |  |  |  |  |  |  |  |  |  |  |
| CN1CCN(c2cc3nc(-c4ccco4)nn3c(N)n2)CC1 [Compound 40, 5-Amino-2-(2-furyl)-7-(4-methylpiperazinyl)[1,2,4]triazolo[1,5-c]pyrimidine] | 20 | 10 | 56 | 50 |  |  |  | 11 |  |  | 18 | 7 | 64 | 7.6 | 22.00 ± 6.44 |
